Experimental data reported in patent US8785460B2, “Tricyclic compounds and use thereof” (Takeda Pharmaceutical Company Limited, priority 2008, dated 2014).

target: T1, human CRF1 receptor (Homo sapiens, UniProt P34998); assay: Measurement of CRF Binding Inhibitory Rate (receptor binding experiment with 125I-CRF); conditions: human CRF1 receptor expressing CHO cellular membrane fraction, 50 pM 125I-CRF, room temperature 1.5 hr, 0.05 nM to 10 μM of compound; read-out: IC50 values (CRF binding inhibition)
T1 construct: expressed in transfected cells; host or cells: CHO cells (membrane fraction)
T1 sequence (P34998 24-415): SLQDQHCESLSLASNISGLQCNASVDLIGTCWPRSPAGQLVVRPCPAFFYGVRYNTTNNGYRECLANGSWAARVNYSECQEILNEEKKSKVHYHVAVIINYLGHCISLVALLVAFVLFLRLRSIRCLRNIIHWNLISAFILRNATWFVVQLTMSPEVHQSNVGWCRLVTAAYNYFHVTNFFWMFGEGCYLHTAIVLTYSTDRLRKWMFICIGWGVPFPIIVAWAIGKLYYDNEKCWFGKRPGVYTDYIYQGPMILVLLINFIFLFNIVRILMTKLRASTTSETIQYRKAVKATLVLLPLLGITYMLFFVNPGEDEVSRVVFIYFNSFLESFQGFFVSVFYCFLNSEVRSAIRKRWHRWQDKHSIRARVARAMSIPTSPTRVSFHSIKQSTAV

SMILES | IC50 [nM]
OC(c1ccc(Cl)c2nc3n(c12)CCCOC3c1ccc(Cl)cc1Cl)(C1CC1)C1CC1 (centres unmarked) [Example 500, [10-Chloro-1-(2,4-dichlorophenyl)-4,5-dihydro-1H,3H-[1,4]oxazepino[4,3-a]benzimidazol-7-yl](dicyclopropyl)methanol] | < 1000
CCN(CC)c1ccc(Cl)c2nc3n(c12)CCOC3c1ccc(Cl)cc1Cl (centres unmarked) [Example 502, 9-Chloro-1-(2,4-dichlorophenyl)-N,N-diethyl-3,4-dihydro-1H-[1,4]oxazino[4,3-a]benzimidazol-6-amine] | < 1000
CCN(CC)c1cccc2nc3n(c12)CCN=C3c1ccc(Cl)cc1Cl [Example 507, 1-(2,4-Dichlorophenyl)-N,N-diethyl-3,4-dihydropyrazino[1,2-a]benzimidazol-6-amine] | < 1000

system: not given; assay: not given; conditions: not given

SMILES | melting point [°C]
CCC(OC(C)=O)c1ccc(Cl)c2nc3n(c12)CCCN3c1ccc(OC)nc1C (single isomer, unassigned; (+)) [Example 267, (+)-1-[9-Chloro-1-(6-methoxy-2-methylpyridin-3-yl)-1,2,3,4-tetrahydropyrimido[1,2-a]benzimidazol-6-yl]propyl acetate] | 110 to 114
CCC(O)c1ccc(Cl)c2nc3n(c12)CCCN3c1ccc(Cl)cc1Cl (single isomer, unassigned; (+)) [Example 439, (+)-1-[9-Chloro-1-(2,4-dichlorophenyl)-1,2,3,4-tetrahydropyrimido[1,2-a]benzimidazol-6-yl]propan-1-ol] | 233 to 235
CCC(O)c1ccc(Cl)c2nc3n(c12)CCCN3c1ccc(Cl)cc1Cl (single isomer, unassigned; (-)) [Example 438, (−)-1-[9-Chloro-1-(2,4-dichlorophenyl)-1,2,3,4-tetrahydropyrimido[1,2-a]benzimidazol-6-yl]propan-1-ol] | 221 to 223
CCN(CC)c1cccc2nc3n(c12)CCC(=O)N3c1ccc(Cl)cc1Cl [Example 19, 1-(2,4-Dichlorophenyl)-6-(diethylamino)-3,4-dihydropyrimido[1,2-a]benzimidazol-2(1H)-one] | 113 to 114
CCN(CC)c1cccc2nc3n(c12)CCCN3c1ccc(Cl)cc1Cl [Example 20, 1-(2,4-Dichlorophenyl)-N,N-diethyl-1,2,3,4-tetrahydropyrimido[1,2-a]benzimidazol-6-amine] | 131 to 133
CCN(CC)c1cccc2nc3n(c12)CC(CC(=O)OC)N3c1ccc(Cl)cc1Cl (centres unmarked) [Example 72, Methyl [1-(2,4-dichlorophenyl)-5-(diethylamino)-2,3-dihydro-1H-imidazo[1,2-a]benzimidazol-2-yl]acetate] | 137 to 138
CCN(CC)c1cccc2nc3n(c12)CC(CC(=O)O)N3c1ccc(Cl)cc1Cl (centres unmarked) [Example 73, [1-(2,4-Dichlorophenyl)-5-(diethylamino)-2,3-dihydro-1H-imidazo[1,2-a]benzimidazol-2-yl]acetic acid] | 249 to 251
NC(=O)c1cccc2nc3n(c12)CCCN3c1ccc(Cl)cc1Cl [Example 83, 1-(2,4-Dichlorophenyl)-1,2,3,4-tetrahydropyrimido[1,2-a]benzimidazole-6-carboxamide] | 198 to 200
N#Cc1cccc2nc3n(c12)CCCN3c1ccc(Cl)cc1Cl [Example 84, 1-(2,4-Dichlorophenyl)-1,2,3,4-tetrahydropyrimido[1,2-a]benzimidazole-6-carbonitrile] | 170 to 171
CN(C)C(=O)c1cccc2nc3n(c12)CCCN3c1ccc(Cl)cc1Cl [Example 86, 1-(2,4-Dichlorophenyl)-N,N-dimethyl-1,2,3,4-tetrahydropyrimido[1,2-a]benzimidazole-6-carboxamide] | 212 to 213
CN(C)Cc1cccc2nc3n(c12)CCCN3c1ccc(Cl)cc1Cl [Example 87, 1-[1-(2,4-Dichlorophenyl)-1,2,3,4-tetrahydropyrimido[1,2-a]benzimidazol-6-yl]-N,N-dimethylmethanamine] | 158 to 159
CCN(CC)C(=O)c1cccc2nc3n(c12)CCCN3c1ccc(Cl)cc1Cl [Example 88, 1-(2,4-Dichlorophenyl)-N,N-diethyl-1,2,3,4-tetrahydropyrimido[1,2-a]benzimidazole-6-carboxamide] | 183 to 184
CCN(CC)Cc1cccc2nc3n(c12)CCCN3c1ccc(Cl)cc1Cl [Example 89, N-{[1-(2,4-Dichlorophenyl)-1,2,3,4-tetrahydropyrimido[1,2-a]benzimidazol-6-yl]methyl}-N-ethylethanamine] | 112 to 114
O=C(c1cccc2nc3n(c12)CCCN3c1ccc(Cl)cc1Cl)N1CC(O)C1 [Example 90, 1-{[1-(2,4-Dichlorophenyl)-1,2,3,4-tetrahydropyrimido[1,2-a]benzimidazol-6-yl]carbonyl}azetidin-3-ol] | 257 to 258
OC1CN(Cc2cccc3nc4n(c23)CCCN4c2ccc(Cl)cc2Cl)C1 [Example 91, 1-{[1-(2,4-Dichlorophenyl)-1,2,3,4-tetrahydropyrimido[1,2-a]benzimidazol-6-yl]methyl}azetidin-3-ol] | 240 to 241
CCC(O)c1cccc2nc3n(c12)CCCN3c1ccc(Cl)cc1Cl (centres unmarked) [Example 92, 1-[1-(2,4-Dichlorophenyl)-1,2,3,4-tetrahydropyrimido[1,2-a]benzimidazol-6-yl]propan-1-ol] | 186 to 188
OC(c1cccc2nc3n(c12)CCCN3c1ccc(Cl)cc1Cl)C1CC1 (centres unmarked) [Example 95, Cyclopropyl[1-(2,4-dichlorophenyl)-1,2,3,4-tetrahydropyrimido[1,2-a]benzimidazol-6-yl]methanol] | 208 to 209
CCC(O)c1ccc(Cl)c2nc3n(c12)CCCN3c1ccc(Cl)cc1Cl (centres unmarked) [Example 112, 1-[9-Chloro-1-(2,4-dichlorophenyl)-1,2,3,4-tetrahydropyrimido[1,2-a]benzimidazol-6-yl]propan-1-ol] | 244 to 245
COc1nc(C)c(N2CCCn3c2nc2c(Cl)ccc(C(NC(=O)C(F)F)C(F)(F)F)c23)c(C)n1 (centres unmarked) [Example 190, N-{1-[9-Chloro-1-(2-methoxy-4,6-dimethylpyrimidin-5-yl)-1,2,3,4-tetrahydropyrimido[1,2-a]benzimidazol-6-yl]-2,2,2-trifluoroethyl}-2,2-difluoroacetamide] | 155 to 156
O=C1CCCN1c1ccc(Cl)c2nc3n(c12)CCCN3c1ccc(Cl)cc1Cl [Example 195, 1-[9-Chloro-1-(2,4-dichlorophenyl)-1,2,3,4-tetrahydropyrimido[1,2-a]benzimidazol-6-yl]pyrrolidin-2-one] | 215 to 216
CCC(=O)c1cccc2nc3n(c12)CCCN3c1ccc(Cl)cc1Cl [Example 198, 1-[1-(2,4-Dichlorophenyl)-1,2,3,4-tetrahydropyrimido[1,2-a]benzimidazol-6-yl]propan-1-one] | 195 to 196
O=C(c1cccc2nc3n(c12)CCCN3c1ccc(Cl)cc1Cl)C1CC1 [Example 199, Cyclopropyl[1-(2,4-dichlorophenyl)-1,2,3,4-tetrahydropyrimido[1,2-a]benzimidazol-6-yl]methanone] | 189 to 190
CCC(c1cccc2nc3n(c12)CCCN3c1ccc(Cl)cc1Cl)N(C)C (centres unmarked) [Example 203, 1-[1-(2,4-Dichlorophenyl)-1,2,3,4-tetrahydropyrimido[1,2-a]benzimidazol-6-yl]-N,N-dimethylpropan-1-amine] | 144 to 145
CCC(C)Nc1cccc2nc3n(c12)CCCN3c1ccc(Cl)cc1Cl (centres unmarked) [Example 207, 1-(2,4-Dichlorophenyl)-N-(1-methylpropyl)-1,2,3,4-tetrahydropyrimido[1,2-a]benzimidazol-6-amine] | 180 to 181
Cc1nc(O)nc(C)c1N1CCCn2c1nc1c(Cl)ccc(C(OC(F)F)C(F)(F)F)c12 (centres unmarked) [Example 215, 5-{9-Chloro-6-[1-(difluoromethoxy)-2,2,2-trifluoroethyl]-3,4-dihydropyrimido[1,2-a]benzimidazol-1(2H)-yl}-4,6-dimethylpyrimidin-2-ol] | 208 to 210
CCC(CC)c1ccc(Cl)c2nc3n(c12)CCN3c1ccc(Cl)cc1C(N)=O [Example 223, 5-Chloro-2-[8-chloro-5-(1-ethylpropyl)-2,3-dihydro-1H-imidazo[1,2-a]benzimidazol-1-yl]benzamide] | > 300
CCC(CC)c1ccc(Cl)c2nc3n(c12)CCN3C(=O)c1ccc(Cl)nc1 [Example 228, 8-Chloro-1-[(6-chloropyridin-3-yl)carbonyl]-5-(1-ethylpropyl)-2,3-dihydro-1H-imidazo[1,2-a]benzimidazole] | 205 to 207
CCC(CC)c1ccc(Cl)c2nc3n(c12)CCN3C(=O)c1c(C)cc(C)cc1C [Example 229, 8-Chloro-5-(1-ethylpropyl)-1-[(2,4,6-trimethylphenyl)carbonyl]-2,3-dihydro-1H-imidazo[1,2-a]benzimidazole] | 234 to 236
CCOC(c1ccc(Cl)c2nc3n(c12)CCCN3c1ccc(OC)nc1C)C(F)(F)F (centres unmarked) [Example 281, 9-Chloro-6-(1-ethoxy-2,2,2-trifluoroethyl)-1-(6-methoxy-2-methylpyridin-3-yl)-1,2,3,4-tetrahydropyrimido[1,2-a]benzimidazole] | 168 to 170
